ChEMBL document CHEMBL1909046, “DrugMatrix in vitro pharmacology data”

Experiments:
Leukotriene C4 synthase = target: T1, Leukotriene C4 synthase (Cavia porcellus, UniProt A6XA80); assay: biochemical; type: tissue-based, Lung;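 also: enzyme inhibition assay of leukotriene C4 synthase, using LTA4 as the substrate; in other assays of this panel Not Active means under 50% inhibition at 10 µM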
T1 sequence (A6XA80 whole entry): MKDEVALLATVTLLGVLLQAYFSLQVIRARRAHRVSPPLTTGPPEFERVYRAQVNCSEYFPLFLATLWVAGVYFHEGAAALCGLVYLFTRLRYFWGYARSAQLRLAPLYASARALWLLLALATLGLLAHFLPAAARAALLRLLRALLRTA

Melanocortin receptor 3 = Melanocortin receptor 3 (Homo sapiens, UniProt P41968); type: cell membranes, HEK293, Membrane; conditions: hek293; also: in other assays of this panel Not Active means under 50% inhibition at 10 µM
Sequence of Melanocortin receptor 3 (P41968 whole entry): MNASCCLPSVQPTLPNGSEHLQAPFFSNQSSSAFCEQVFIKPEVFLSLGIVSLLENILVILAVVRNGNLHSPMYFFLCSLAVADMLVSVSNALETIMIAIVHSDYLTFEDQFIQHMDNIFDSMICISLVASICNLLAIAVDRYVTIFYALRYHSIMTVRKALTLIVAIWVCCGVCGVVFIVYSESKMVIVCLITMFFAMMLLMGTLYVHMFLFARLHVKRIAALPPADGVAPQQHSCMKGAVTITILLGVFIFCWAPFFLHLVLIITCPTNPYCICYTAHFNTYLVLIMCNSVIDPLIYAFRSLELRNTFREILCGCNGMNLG

Melanocortin receptor 4 = Melanocortin receptor 4 (Homo sapiens, UniProt P32245); type: cell membranes, Membrane; conditions: hek293; also: in other assays of this panel Not Active means under 50% inhibition at 10 µM
Sequence of Melanocortin receptor 4 (P32245 whole entry): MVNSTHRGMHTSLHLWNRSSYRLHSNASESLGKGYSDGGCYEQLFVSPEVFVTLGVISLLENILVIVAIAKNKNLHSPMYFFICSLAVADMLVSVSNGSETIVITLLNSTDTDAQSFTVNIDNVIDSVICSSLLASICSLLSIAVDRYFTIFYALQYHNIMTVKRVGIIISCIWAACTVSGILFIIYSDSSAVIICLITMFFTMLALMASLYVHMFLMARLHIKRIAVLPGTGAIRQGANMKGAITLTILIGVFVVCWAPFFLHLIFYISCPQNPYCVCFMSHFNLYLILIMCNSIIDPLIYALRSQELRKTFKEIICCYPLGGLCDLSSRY

[1] = target: T2, Amine oxidase [flavin-containing] A (Homo sapiens, UniProt P21397); assay: DRUGMATRIX: Monoamine Oxidase MAO-A enzyme inhibition (substrate: Kynuramine); set-up: species or system BTI-TN-5B1-4; conditions: bti-tn-5b1-4; Not Active = under 50% inhibition at 10 µM
T2 sequence (P21397 whole entry): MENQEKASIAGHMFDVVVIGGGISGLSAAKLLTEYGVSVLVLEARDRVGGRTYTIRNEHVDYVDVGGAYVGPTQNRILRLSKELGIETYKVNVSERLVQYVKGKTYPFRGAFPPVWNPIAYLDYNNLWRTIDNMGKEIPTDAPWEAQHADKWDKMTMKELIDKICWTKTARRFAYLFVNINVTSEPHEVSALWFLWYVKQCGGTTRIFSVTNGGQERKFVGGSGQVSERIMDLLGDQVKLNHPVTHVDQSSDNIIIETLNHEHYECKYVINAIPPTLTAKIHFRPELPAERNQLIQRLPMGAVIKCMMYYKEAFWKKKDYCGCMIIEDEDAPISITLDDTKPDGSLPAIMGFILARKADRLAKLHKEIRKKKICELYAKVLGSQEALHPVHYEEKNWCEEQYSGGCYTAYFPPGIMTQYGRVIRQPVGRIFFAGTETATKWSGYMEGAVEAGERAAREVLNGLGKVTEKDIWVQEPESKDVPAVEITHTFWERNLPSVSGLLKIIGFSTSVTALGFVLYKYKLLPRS

[2] = target: T3, Muscarinic acetylcholine receptor M4 (Homo sapiens, UniProt P08173); type: cell membranes, CHO-K1, Membrane; conditions: cho-k1; also: in other assays of this panel Not Active means under 50% inhibition at 10 µM
T3 sequence (P08173 whole entry): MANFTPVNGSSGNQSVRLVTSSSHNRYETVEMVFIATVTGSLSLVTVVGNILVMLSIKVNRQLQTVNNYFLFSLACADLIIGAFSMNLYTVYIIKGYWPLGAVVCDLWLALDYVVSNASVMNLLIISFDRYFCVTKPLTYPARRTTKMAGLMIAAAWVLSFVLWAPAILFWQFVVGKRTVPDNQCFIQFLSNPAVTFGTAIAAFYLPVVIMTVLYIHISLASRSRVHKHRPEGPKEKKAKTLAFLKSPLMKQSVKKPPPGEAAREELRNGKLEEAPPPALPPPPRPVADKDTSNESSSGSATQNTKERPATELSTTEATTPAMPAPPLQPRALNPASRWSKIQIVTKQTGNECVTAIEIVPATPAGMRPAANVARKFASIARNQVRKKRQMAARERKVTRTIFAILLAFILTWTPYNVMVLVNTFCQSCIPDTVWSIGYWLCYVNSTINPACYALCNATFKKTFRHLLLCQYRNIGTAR

[3] = target: cGMP-specific 3',5'-cyclic phosphodiesterase (Homo sapiens, UniProt O76074); assay: DRUGMATRIX: Phosphodiesterase PDE5 enzyme inhibition (substrate: [3H]cGMP + cGMP); type: tissue-based, Platelet; conditions: platelet; Not Active = under 50% inhibition at 10 µM

Measured: IC50

CN1C(=O)OC(C)(C)C1=O [TRIMETHADIONE]
Not Active: all assays above

CC1(C)[C@H](C(=O)O)N2C(=O)C[C@H]2S1(=O)=O [SULBACTAM]
Not Active: all assays above
